In patent US5349127A, “Expression of herbicide metabolizing cytochromes P450” (priority 1992, dated 1994):

Tests used:
[1] = test system: S. lividans transformed with pCAO400; experiment: Metabolism of 10001 in growing culture, HPLC of supernatant (Example 4); assay type: in vitro ADME, Streptomyces lividans; settings: 0.12 mg/ml 10001 in culture
Protocol: (§1) Herbicides and their metabolites are measured by HPLC as described by Romesser et al., BBRC 140: 650-659 (1986), herein incorporated by reference, except that 0.1% H3 PO4 is used in both solvents. Chromatographic identity and quantitation of the herbicides and their resulting metabolites is determined by comparing them chromatographically with authentic standard compounds. Identity of the resulting metabolites is also confirmed by UV spectroscopy.
(§2) Separate cultures (50 ml) inoculated with S. lividans C37, S. lividans transformed with pCAO400 or S. lividans transformed with pCAO401 in sporulation broth containing 0.12 mg/ml of 10001 were grown with shaking at 30° C. Aliquots (1.5 ml) of each culture were removed at 24, 32, 48 and 56 hours after inoculation and the supernatant of each aliquot was analyzed by HPLC for its concentration of 10001 and its metabolites 10002 or 10003.

[2] = test system: S. lividans transformed with pCAO401; experiment: as above; assay type: in vitro ADME, Streptomyces lividans; settings: 0.12 mg/ml 10001 in culture
Protocol: as §1, §2

[3] = test system: S. griseolus ATCC 11796 uninduced; experiment: Sulfonylurea metabolism by washed cell suspension (Examples 5-9); assay type: in vitro ADME, Streptomyces griseolus
Protocol: as §1
A 100 ml culture of S. griseolus ATCC 11796 in sporulation broth and a 50 ml culture of S. lividans transformed with pCAO400 in YEME broth were prepared and incubated for 24 hours as described. At that time, the S. griseolus culture was split into two 50 ml aliquots into two separate flasks and 25 ml of fresh sporulation broth was added to each and 9 mg of […] was added to one of these cultures to induce cytochrome P450SU1 expression. Fresh YEME broth (25 ml) was added to the S. lividans culture. After an additional 6 hours growth at 30° C., the cells in each culture were harvested as described above, washed twice with MOPS (50 mM, pH 7.2) and recentrifuged. The cell pellets were resuspended in four cell volumes of MOPS (50 mM, pH 7.2) containing 0.2% glucose and about 100 μg/ml of 10004. These cell suspensions were incubated at 30° C. with shaking and aliqouts were taken at 2 and 5.5 hours. The supernatant of each aliquot was analyzed by HPLC and the concentrations of the sulfonylurea compound 10004 and its metabolite 10005 were determined.
S. lividans transformed respectively with pCAO200SU1-FeS-B#9, pCAO200SU#112and pCAO200 were cultured for 36 hours in 400 ml of YEME broth at 30° C. S. griseolus ATCC 11796 was similarly cultured in 400 ml of sporulation broth. Six hours before harvesting the cells, 150 ml of fresh YEME broth was added to the S. lividans cells, and the S. griseolus cells were split into two 200 ml cultures with 100 ml of fresh sporulation broth added to each. 10001 (36 mg) was added to one of the two S. griseolus cultures to induce cytochrome P450SU1. The cells were prepared as described above in Example 5 and the concentrations of the sulfonylurea compound 10006 and its metabolites 10007, 10008 or 10009 were determined.

[4] = test system: S. lividans pCAO200SU2-FeS-A#11; experiment: Sulfonylurea metabolism by washed cell suspension (Examples 11-12); assay type: in vitro ADME, Streptomyces lividans; settings: substrate 10001
Protocol: S. lividans transformed with pCAO200SU2-FeS-A#11 and S. lividans transformed with pCAO200 were cultured for 36 hours in 400 ml of YEME broth at 30° C. S. griseolus PH2001 (mutant without SU1) was cultured in 400 ml of sporulation broth at 30° C. Nine hours before harvesting the cells, the S. griseolus PH2001 culture was divided into two 200 ml cultures. Both received 100 ml of fresh sporulation broth and one received 36 mg of 10001 to induce cytochrome P450SU2. The cells were prepared as described above in Example 6 and the concentrations of the sulfonylurea compound 10001 and its metabolites 10002 and 10003 were determined.

S. griseolus PH3826 = experiment: Metabolism of 10001 by strains transformed with pPAT108 (Example 14); assay type: in vitro ADME, Streptomyces griseolus; settings: substrate 10001 120 ug/ml
Protocol: (§3) S. griseolus PH2003, S. griseus PH4001, S. ambofaciens PH4002, and S. lividans JI1326 were transformed with the plasmid pPAT108. The transformed S. griseolus strain, PH3826, was cultured for 24 hours in 150 mls of sporulation broth with 5 ug/ml thiostrepton. The transformed S. griseus strain, PH3832, and the transformed S. ambofaciens strain, PH3834, were cultured for 24 hours in 150 mls of trypticase soy broth with 5 ug/ml thiostrepton. The transformed S. lividans strain, PH3822, was similarly cultured in 150 mls of YEME broth with 5 ug/ml thiostrepton. Three hours before harvesting the cells, 50 mls of fresh medium of the same type with 5 ug/ml thiostrepton was added to each culture. The cells from each of the cultures were harvested by centrifugation, washed twice with 50 mMMOPS, pH7.2 and resuspended in five cell volumes of MOPS containing 0.2% glucose and 120 ug/ml of the sulfonylurea 10001. The cell suspensions were incubated at 30° C. with shaking and aliquots were removed at 0.5, 1, 2 and 4 hours. The supernatant of each aliquot was analyzed by HPLC and the concentration of the sulfonylurea compound 10001 and its metabolites 10002 and 10003 were determined.

S. ambofaciens PH3834 = experiment: as above; assay type: in vitro ADME, Streptomyces ambofaciens; settings: substrate 10001 120 ug/ml
Protocol: as §3

S. lividans PH3822 = experiment: as above; assay type: in vitro ADME, Streptomyces lividans; settings: substrate 10001 120 ug/ml
Protocol: as §3

Row | SMILES | concentration in supernatant ([1]; 0 h) | concentration in supernatant ([1]; 24 h) | concentration in supernatant ([1]; 32 h) | concentration in supernatant ([1]; 48 h) | concentration in supernatant ([1]; 56 h) | concentration in supernatant ([2]; 0 h) | concentration in supernatant ([2]; 24 h) | concentration in supernatant ([2]; 32 h) | concentration in supernatant ([2]; 48 h) | concentration in supernatant ([2]; 56 h) | concentration in supernatant ([4]; 2 h) | concentration in supernatant ([4]; 4 h) | concentration in supernatant ([4]; 6 h) | concentration in supernatant (S. griseolus PH3826; 0.5 h) | concentration in supernatant (S. griseolus PH3826; 1.0 h) | concentration in supernatant (S. griseolus PH3826; 2.0 h) | concentration in supernatant (S. griseolus PH3826; 4.0 h) | concentration in supernatant (S. ambofaciens PH3834; 1.0 h) | concentration in supernatant (S. ambofaciens PH3834; 2.0 h) | concentration in supernatant (S. ambofaciens PH3834; 4.0 h) | other results
1 | COc1cc(Cl)nc(NC(=O)NS(=O)(=O)c2ccccc2C(=O)O)n1 [compound 10003, N-[(4-chloro-6-methoxy-pyrimidin-2-yol)aminocarbonyl]-2-carboxybenzenesulfonamide] | 0 µM | 16 µM | 22 µM | 28 µM | 29 µM | 0 µM | 26 µM | 36 µM | 46 µM | 48 µM | 1 µM | 2 µM | 3 µM | 22 µM | 58 µM | 97 µM | 107 µM | 6 µM | 14 µM | 33 µM | concentration in supernatant ([3]; substrate 10001, 2 h): 14 µM; concentration in supernatant ([3]; substrate 10001, 4 h): 37 µM; concentration in supernatant ([3]; substrate 10001, 6 h): 62 µM; concentration in supernatant (S. ambofaciens PH3834; 0.5 h): 1 µM; concentration in supernatant (S. lividans PH3822; 0.5 h): 1 µM; concentration in supernatant (S. lividans PH3822; 1.0 h): 3 µM; concentration in supernatant (S. lividans PH3822; 2.0 h): 5 µM; concentration in supernatant (S. lividans PH3822; 4.0 h): 15 µM
2 | COC(=O)c1ccccc1S(=O)(=O)NC(=O)Nc1nc(C)cc(C)n1 [compound 10010, N-[(4,6-dimethylpyrimidin-2-yl)aminocarbonyl]-2-methoxycarbonylbenzenesulfonamide] |  |  |  |  |  |  |  |  |  |  |  |  |  |  |  |  |  |  |  |  | concentration in supernatant ([3]; substrate 10010, 2 h): 70 µM; concentration in supernatant ([3]; substrate 10010, 4 h): 49 µM; concentration in supernatant ([3]; substrate 10010, 6 h): 37 µM
3 | CCOC(=O)c1ccccc1S(=O)(=O)NC(=O)Nc1nc(Cl)cc(OC)n1 [compound 10001, N-[(4-chloro-6-methoxy-pyrimidin-2-yl)aminocarbonyl]-2-ethoxycarbonylbenzenesulfonamide] | 300 µM | 269 µM | 240 µM | 184 µM | 137 µM | 284 µM | 230 µM | 203 µM | 123 µM | 105 µM | 279 µM | 273 µM | 251 µM | 222 µM | 137 µM | 19 µM | 0 µM | 278 µM | 250 µM | 191 µM | concentration in supernatant ([3]; substrate 10001, 2 h): 244 µM; concentration in supernatant ([3]; substrate 10001, 4 h): 167 µM; concentration in supernatant ([3]; substrate 10001, 6 h): 86 µM; concentration in supernatant (S. lividans PH3822; 0.5 h): 294 µM; concentration in supernatant (S. lividans PH3822; 1.0 h): 284 µM; concentration in supernatant (S. lividans PH3822; 2.0 h): 262 µM; concentration in supernatant (S. lividans PH3822; 4.0 h): 232 µM
4 | CCOC(=O)c1ccccc1S(=O)(=O)NC(=O)Nc1nc(O)cc(Cl)n1 [compound 10002, N-[(4-chloro-6-hydroxy-pyrimidin-2-yl)aminocarbonyl]-2-ethoxycarbonylbenzenesulfonamide] | 0 µM | 17 µM | 25 µM | 39 µM | 47 µM | 0 µM | 32 µM | 44 µM | 63 µM | 71 µM | 7 µM | 12 µM | 15 µM | 41 µM | 101 µM | 171 µM | 189 µM | 11 µM | 27 µM | 64 µM | concentration in supernatant (S. ambofaciens PH3834; 0.5 h): 6 µM; concentration in supernatant (S. lividans PH3822; 0.5 h): 2 µM; concentration in supernatant (S. lividans PH3822; 1.0 h): 5 µM; concentration in supernatant (S. lividans PH3822; 2.0 h): 10 µM; concentration in supernatant (S. lividans PH3822; 4.0 h): 25 µM
